US10913781B2, “Pepducin design and use” (Tufts Medical Center, Inc., priority 2011, dated 2021)
Where two headings read alike, the source gives them in different places. Peptide text beside a SMILES is read from it. * marks the point of attachment. Palmitoyl = CCCCCCCCCCCCCCCC(=O)*

How the values were obtained:
[1] = test system: A549, HOP62, and HOP92 lung carcinoma cell lines; assay: Cytotoxicity/cell viability of lung carcinoma cells (MIT assay); format: cell-based, human; conditions: 3-day period
[2] = test system: A549 xenografts; format: in vivo, mouse; conditions: mouse, in vivo
Experimental: (§1) FIG. 13 illustrates that monotherapy with PAR1-i3 pepducins inhibits tumor progression of A549 xenografts. (A) and (B): A549 mice treated with vehicle, P1pal-7, P1pal-i1-11, P1pal-10S, X1/2-i1, X1/2-i3, or Avastin. Each time point represents the mean±SE. (C): Final tumor volume at the completion of the experiment was calculated as a percentage of untreated vehicle control. (D): Serum-starved A549 adenocarcinoma cells were pretreated with P1pal-7, P1pal-10S, P1pal-i1-11, vehicle, or PD98059 and stimulated with thrombin. VEGF production was assessed by enzyme-linked immunosorbent assay. Data are expressed as mean±SD (*P<0.05, **P<0.01).
PAR1 expression level is correlated with reduced survival of patients with NSCLC. To define the relative importance of PAR1 in lung tumor progression, in vivo mouse models were used. […] An A549 lung adenocarcinoma xenograft model in nude mice was used to evaluate monotherapy with P1pal-7, P1pal-10S, P1pal-i1-11, or the VEGF antagonist Avastin.

[3] = test system: VEGF-A production; assay: Thrombin-dependent VEGF-A production in A549 cells (ELISA); format: cell-based, human; conditions: A549, 18 hours thrombin treatment
Experimental: as §1
Because the i3-based P1pal-7 pepducin had similar efficacy as Avastin in suppressing lung tumor growth of A549 xenografts, VEGF-A production was measured in the A549 tumor cells after 18 hours thrombin treatment. […] Unlike in ovarian cancer, no increase was found in PAR1-mediated IL-8 production in A549 cells, consistent with the observed lack of efficacy of CXCR1/2 pepducins in the A549 xenograft models. These xenograft data provide support for the role of a novel PAR1-ERK1/2-VEGF paracrine pathway that is an effective therapeutic target in the A549 adenocarcinoma lung cancer model.

[4] = Pharmacokinetics of PAR1 pepducins in CF-1 mice, plasma LC/MS/MS; format: in vivo, mouse; conditions: for Cmax: read-out: Peak plasma level
Experimental: FIG. 14 illustrates pharmacokinetics of PAR1 pepducins. (A): CF-1 mice were injected subcutaneously with P1pal-7 (3 mg/kg, open circles), P1pal-7 (10 mg/kg, closed circles), P1pal-10S (10 mg/kg, gray circles), or P1pal-i1-11 (10 mg/kg, open squares) in 20% dimethyl sulfoxide and blood was collected at indicated time points (n=3). Pepducin levels in plasma were quantified with LC/MS/MS. (B): Daily (D1 to D6) plasma levels of P1pal-7 after subcutaneous injection of 10 mg/kg P1pal-7 were measured at 1 hour (open circles) and 24 hours (open squares).
Pharmacokinetics of plasma levels of P1pal-7, P1pal-10S, and P1pal-i1-11 at 30 minutes, and at 1, 2, 4, 6, 8, and 16 hours was measured by LC/MS/MS to determine steady-state pepducin drug levels and the rate of elimination from mice. Subcutaneous injections of P1pal-7 (3 mg/kg or 10 mg/kg) into wild-type CF-1 mice (25 to 30 g) was followed by blood collection at various time points from the vena cava. […] Residual P1pal-7 levels were 10 nmol/L at the 16-hour time point. After the 4-hour plateau, the elimination rate was linear from 4 to 16 hours. The peak plasma level of 3 mg/kg P1pal-7 reached 0.6 μmol/L at 2 hours and elimination was linear between 2 hours and 16 hours. P1pal-10S (10 mg/kg) gave similar peak plasma level of 1.0 μmol/L as P1pal-7 (10 mg/kg) at 1 hour.
Lastly, the peak plasma level of P1pal-7 (10 mg/kg) was measured before and 1 hour after once-daily subcutaneous injection over 6 days to determine whether the peak plasma levels were consistent on daily administration.

[5] = molecular target: T1, PAR1 (Homo sapiens, UniProt P25116); assay: ERK1/2 phosphorylation in A549 cells (thrombin or […]), Western blot; format: cell-based; design: endogenous in cells; host or cells: A549, HOP62, H1299, H522, H226, HOP92 lung carcinoma lines
T1 sequence (P25116 22-425): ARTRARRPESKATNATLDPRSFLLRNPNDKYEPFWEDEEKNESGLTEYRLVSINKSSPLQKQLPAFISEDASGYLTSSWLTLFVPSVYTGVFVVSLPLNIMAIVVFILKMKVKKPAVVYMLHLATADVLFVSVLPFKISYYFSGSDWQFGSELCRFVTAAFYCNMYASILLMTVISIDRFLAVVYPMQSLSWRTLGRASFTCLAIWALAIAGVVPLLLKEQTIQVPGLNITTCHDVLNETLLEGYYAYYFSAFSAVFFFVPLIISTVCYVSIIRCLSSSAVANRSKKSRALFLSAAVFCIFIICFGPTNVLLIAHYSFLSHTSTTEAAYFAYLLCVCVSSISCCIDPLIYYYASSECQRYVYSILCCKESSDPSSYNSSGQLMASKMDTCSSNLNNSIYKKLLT
Experimental: FIG. 9 illustrates that differential inhibition of PAR1-ERK activation by i3- and i1-derived PAR1 pepducins. (A-C): Western blots of lysates from A549 cells untreated, or treated with thrombin, SLIGKV (SEQ ID NO:29), or AYPGKF (SEQ ID NO:5). Indicated samples were pretreated with various concentrations (0.1 to 3 μmol/L) of P1pal-7, P1pal-10S, or P1pal-i1-11 before stimulation and immunoblotted with anti-phospho-ERK. (D-F): Quantification of the Western blots in (A-C) were conducted by densitometry and results are expressed relative to maximum (fold max) phosphorylation of pERK.
(B): A549 cells stimulated with 10 μM […] over 2 h. A549 cells pretreated with 0.1 μM P1pal-7 and stimulated with 10 μM […] (SEQ ID NO:30) for 5 min. Total ERK was used as a loading control.
Last, there has been a great deal of interest in understanding the mechanism of PAR1-mediated activation of MAP kinase cascade and PAR1-dependent cellular growth and differentiation, proliferation and gene transcription. […] The effects of i1 versus i3 PAR1 pepducins on ERK1/2 activation were examined in the A549 lung adenocarcinoma cell line. […] Inhibition experiments with a range of pepducin concentrations (0.1-3 μM) were conducted. […] The […] (SEQ ID NO:30) peptide gave a rapid and transient ERK1/2 phosphorylation signal that peaked at 5-15 min after stimulation. […] To determine the specificity of the PAR1 pepducin inhibitors, their effects on the closely related PAR2 and PAR4 receptors were also tested.

[6] = molecular target: T1, PAR1; assay: Migration of primary patient lung tumor cells; format: cell-based; design: endogenous in cells; host or cells: A549, HOP62, H1299, H522, H226, HOP92 lung carcinoma lines
Experimental: FIG. 12 illustrates that PAR1 is a promigratory factor in lung cancer cells. (A-F): Inhibition of lung cancer migration in adenocarcinomas A549, HOP62, H1299 and H522, H226 squamous, and HOP92 large cell using PAR1 pepducins. Pepducins at […] (P1pal-7, P1pal-10S, P1pal-i1-11, or negative control P1pal-19EE) were added to the lower well. (G): Cell from primary lung tumors or nonmalignant control were pretreated with PAR1 pepducins and migration was determined (*P<0.05, **P<0.01).
Further experiments were carried out to determine whether migration of the primary carcinoma cell lines isolated from lung tumors could be inhibited by PAR1 pepducins (FIG. 12G). […] Likewise, the RWJ-56110 small-molecule antagonist of PAR1 (Andrade-Gordon, et al., Proc. Natl Acad Sci USA, 96 (1999), pp. 12257-12262) suppressed up to 55% of the migration of primary lung tumor cells toward NIH-3T3 conditioned media. The PAR1 antagonist pepducin P1pal-7 and P1pal-i1-11 had no effect on the low-expressing PAR1 cell line derived from benign lung tissue, which migrated poorly (FIG. 12G).

## CCCCCCCCCCCCCCCC(=O)N[C@@H](CCCCN)C(=O)N[C@@H](CCCCN)C(=O)N[C@@H](CO)C(=O)N[C@@H](CCCNC(=N)N)C(=O)N[C@@H](C)C(=O)N[C@@H](CC(C)C)C(=O)N[C@@H](Cc1ccccc1)C(N)=O [P1pal-7] (Palmitoyl-KKSRALF-NH2)
[1]
  Sensitivity of A549 cells (cytotoxicity): most sensitive
[2]
  Inhibition of tumor progression/growth (final tumor volume vs vehicle): 75%
[3]
  Effect on thrombin-dependent VEGF-A production: completely blocked
[4]; 10 mg/kg s.c.
  Duration of peak plasma level: 4 h
[4]; CF-1, mouse, plasma, sc, 3 mg/kg s.c.
  Cmax: 600 nM
[4]; CF-1, mouse, plasma, sc, 10 mg/kg s.c., read-out: Plasma level at the 6-hour time point
  level at time molar at 6 h: 200 nM
[4]; CF-1, mouse, plasma, sc, 10 mg/kg s.c., read-out: Residual plasma level at the 16-hour time point
  level at time molar at 16 h: 10 nM
[4]; daily subcutaneous dosing, mouse
  Accumulation in plasma after daily dosing: does not accumulate in plasma
[4]; mouse, plasma, sc, 10 mg/kg s.c., CF-1 mice
  Cmax: 1100 nM
[5]; 0.1 μM pepducin, 10 μM PRSFLLRN, 5 min, A549
  Block of PRSFLLRN-induced phospho-ERK signal: completely block
[5]; A549 cells, pepducin 0.1-3 μM
  Effect on thrombin-induced ERK1/2 phosphorylation: complete inhibition
[6]
  Effect on migration of low-expressing PAR1 cell line derived from benign lung tissue: no effect

## NCC[C@H](NC(=O)[C@H](Cc1ccc(F)c(F)c1)NC(=O)Nc1ccc2c(CN3CCCC3)cn(Cc3c(Cl)cccc3Cl)c2c1)C(=O)NCc1ccccc1 [RWJ-56110, reference compound]
[6]; primary lung tumors
  Inhibition of migration of primary lung tumor cells: up to 55%
